Assay results from ChEMBL document CHEMBL5375956, “Discovery of Pyrazolo[1,5-a]pyrimidine Derivative as a Novel and Selective ALKBH5 Inhibitor for the Treatment of AML” (J Med Chem, 2023).
Active and inactive are the calls of the source. The rule behind the calls is not given here.

Legend:
[1] = Half life in Sprague-Dawley rat at 2 mg/kg, iv measured for 1 to 1440 mins by LC-MS/MS analysis; format: ADME, organism-based; conditions: in vivo, time 1-1440 min
RNA demethylase ALKBH5 [2] = molecular target: RNA demethylase ALKBH5 (Homo sapiens, UniProt Q6P6C2, K132A); experiment: Binding affinity to NT-647-NHS fluorescent dye-labeled ALKBH5 K132A mutant (unknown origin) expressed in Escherichia coli BL21(DE3) using m6A-ssDNA as substrate assessed as dissociation constant incubated for 15 mins by MST assay
[3] = Toxicity in nude mouse xenografted with human MV4-11 cells assessed as heart damage at 10 to 40 mg/kg, ip treated every day for 14 days by H and E staining based analysis; format: organism-based; conditions: in vivo, 336 h, dose 10-40 mg/kg, time 14 day
MV4-11 [4] = experiment: Downregulation of TACC3 level in human MV4-11 cells upto 10 uM incubated for 48 hrs by Western blot analysis; format: functional, cell-based
HEK293 = experiment: Effect on c-Myc level in HEK293 cells upto 10 uM incubated for 48 hrs by Western blot analysis; format: functional, cell-based; conditions: Homo sapiens
RNA demethylase ALKBH5 [5] = molecular target: T1, RNA demethylase ALKBH5 (Homo sapiens, UniProt Q6P6C2); experiment: Binding affinity to ALKBH5 in human MOLM-13 cells assessed as thermal shift heating at 200 uM incubated for 30 mins followed by heating at 45 to 67 degreeC measured for 3 mins by CETSA assay; format: cell-based
[6] = Metabolic stability in human liver microsomes assessed as clearance measured upto 240 mins by LC-MS/MS analysis; format: ADME, Microsome; conditions: read-out: CLH
RNA demethylase ALKBH5 [7] = molecular target: T1, RNA demethylase ALKBH5; experiment: Inhibition of ALKBH5 in human MOLM-13 cells assessed as increase in m6A mRNA methylation level at 20 uM incubated for 48 hrs by LC-MS/MS analysis; format: cell-based
MOLM-13 [8] = experiment: Induction of apoptosis in human MOLM-13 cells assessed as viable cells at 10 uM incubated for 48 hrs by Annexin V-FITC/PI staining based flow cytometry (reference value: 89.8 %); format: functional; conditions: read-out: Activity
RNA demethylase ALKBH5 [9] = molecular target: T1, RNA demethylase ALKBH5; experiment: Competitive binding affinity to ALKBH5 (66 to 292 residues)(unknown origin) expressed in Escherichia coli BL21(DE3) using 5'-ATTGTCA(m6A)CAGCAGA-FAM-3' as substrate assessed as dissociation constant incubated for 30 mins in presence of 2-OG by FP assay
[10] = Metabolic stability in human plasma assessed as half life measured upto 240 mins by LC-MS/MS analysis; format: ADME, cell-free
[11] = Metabolic stability in rat liver microsomes assessed as half life measured upto 240 mins by LC-MS/MS analysis; format: ADME, Microsome
[12] = Apparent volume of distribution during terminal phase in Sprague-Dawley rat at 2 mg/kg, iv measured for 1 to 1440 mins by LC-MS/MS analysis; format: ADME, organism-based; conditions: in vivo, time 1-1440 min
RNA demethylase ALKBH5 [13] = molecular target: T1, RNA demethylase ALKBH5; experiment: Inhibition of ALKBH5 (66 to 292 residues)(unknown origin) expressed in Escherichia coli BL21(DE3) using 5'-ATTGTCA(m6A)CAGCAGA-FAM-3' as substrate incubated for 30 mins in presence of 20 uM of 2-OG by FP based competitive binding assay
RNA demethylase ALKBH5 [14] = molecular target: T1, RNA demethylase ALKBH5; experiment: Inhibition of ALKBH5 (66 to 292 residues)(unknown origin) expressed in Escherichia coli BL21(DE3) using 5'-TAGACATTGCCATTCTCGATAGG(m6A)-TCCGGTCAAACCTAGACGAATTCCA-3' as substrate upto 100 uM incubated for 2 hrs in presence of 2-OG by restriction endonuclease digestion assay
MV4-11 [15] = experiment: Induction of apoptosis in human MV4-11 cells assessed as early apoptosis cells at 10 uM incubated for 48 hrs by Annexin V-FITC/PI staining based flow cytometry (reference value: 1.24 %); format: functional
[16] = Toxicity in nude mouse xenografted with human MV4-11 cells assessed as lung weight change at 10 to 40 mg/kg, ip treated every day for 14 days; format: organism-based; conditions: in vivo, 336 h, dose 10-40 mg/kg, time 14 day
[17] = Oral bioavailability in Sprague-Dawley rat at 10 mg/kg measured for 1 to 1440 mins by LC-MS/MS analysis; format: ADME, organism-based; conditions: in vivo, time 1-1440 min
MV4-11 [18] = experiment: Induction of apoptosis in human MV4-11 cells assessed as necrotic cells at 10 uM incubated for 48 hrs by Annexin V-FITC/PI staining based flow cytometry (reference value: 1.81 %); format: functional
RNA demethylase ALKBH5 [19] = molecular target: T1, RNA demethylase ALKBH5; experiment: Inhibition of ALKBH5 in human MV4-11 cells assessed as increase in m6A mRNA methylation level at 20 uM incubated for 48 hrs by LC-MS/MS analysis; format: cell-based
MOLM-13 [20] = experiment: Induction of apoptosis in human MOLM-13 cells assessed as necrotic cells at 10 uM incubated for 48 hrs by Annexin V-FITC/PI staining based flow cytometry (reference value: 1.00 %); format: functional
MOLM-13 [21] = experiment: Downregulation of c-Myc mRNA level in human MOLM-13 cells at 5 to 10 uM incubated for 48 hrs by qRT-PCR analysis; format: functional, cell-based; conditions: dose 5-10 µM
MV4-11 [22] = experiment: Induction of apoptosis in human MV4-11 cells assessed as late apoptosis cells at 5 uM incubated for 48 hrs by Annexin V-FITC/PI staining based flow cytometry (reference value: 7.17 %); format: functional
MV4-11 [23] = experiment: Induction of cell cycle arrest at […] phase in human MV4-11 cells at 20 uM incubated for 48 hrs by […]PI staining based flow cytometry; format: functional
MOLM-13 [24] = experiment: Induction of apoptosis in human MOLM-13 cells assessed as viable cells at 5 uM incubated for 48 hrs by Annexin V-FITC/PI staining based flow cytometry (reference value: 89.8 %); format: functional; conditions: read-out: Activity
MOLM-13 [25] = experiment: Induction of apoptosis in human MOLM-13 cells assessed as late apoptosis cells at 5 uM incubated for 48 hrs by Annexin V-FITC/PI staining based flow cytometry (reference value: 6.49 %); format: functional
[26] = Metabolic stability in human liver microsomes assessed as half life measured upto 240 mins by LC-MS/MS analysis; format: ADME, Microsome
HUVEC [27] = experiment: Effect on TACC3 level in HUVEC cells upto 10 uM incubated for 48 hrs by Western blot analysis; format: functional, cell-based; conditions: Homo sapiens
HUVEC [28] = experiment: Effect on c-Myc mRNA level in HUVEC cells at 5 to 10 uM incubated for 48 hrs by qRT-PCR analysis; format: functional, cell-based; conditions: Homo sapiens, dose 5-10 µM
[29] = MRT in Sprague-Dawley rat at 2 mg/kg, iv measured for 1 to 1440 mins by LC-MS/MS analysis; format: ADME, organism-based; conditions: in vivo, time 1-1440 min
RNA demethylase ALKBH5 [30] = molecular target: T1, RNA demethylase ALKBH5; experiment: Inhibition of ALKBH5 in human MOLM-13 cells assessed as increase in m6A RNA level by dot blot assay; format: cell-based; conditions: dose <= 20.0 µM
[31] = Tmax in Sprague-Dawley rat at 10 mg/kg, po measured for 1 to 1440 mins by LC-MS/MS analysis; format: ADME, organism-based; conditions: in vivo, time 1-1440 min
MV4-11 [32] = experiment: Downregulation of TACC3 mRNA level in human MV4-11 cells assessed as half life of expression at 20 umol/L incubated for 24 hrs by qRT-PCR analysis (reference value: 2.63 hrs); format: functional, cell-based; conditions: dose 20.0 µmol/L
MOLM-13 [33] = experiment: Induction of apoptosis in human MOLM-13 cells assessed as late apoptosis cells at 10 uM incubated for 48 hrs by Annexin V-FITC/PI staining based flow cytometry (reference value: 6.49 %); format: functional

half-life [1]: 0.612 h
Kd (RNA demethylase ALKBH5 [2]): 53 µM
Activity (RNA demethylase ALKBH5 [5]): Active
microsomal CLint [6]: 3.2 µL/min/mg
inhibition (RNA demethylase ALKBH5 [7]): Active
Kd (RNA demethylase ALKBH5 [9]): ~0.0657 µM
half-life [10]: 10.4 h
half-life [11]: 0.23 h
Vz/F [12]: 0.2636 L/kg
IC50 (RNA demethylase ALKBH5 [13]): 4.32 µM
inhibition (RNA demethylase ALKBH5 [14]): Active
bioavailability [17]: 17.3%
inhibition (RNA demethylase ALKBH5 [19]): Active
half-life [26]: 7.17 h
MRT [29]: 1.3 h
inhibition (RNA demethylase ALKBH5 [30]): Dose-Dependent Effect
Tmax [31]: 0.5 h
SMILES: O=C(OCc1ccc(C(F)(F)F)cc1)c1ccc(-c2cc3ncc(C(=O)c4c(O)ccc([N+](=O)[O-])c4O)cn3n2)cc1
Activity [3]: Non-Toxic
Activity (MV4-11 [4]): Active
Activity (HEK293): inactive
viability at 10 µM (MOLM-13 [8]): 61.5%
Activity (MV4-11 [15]): 2.59%
Activity [16]: Non-Toxic
Activity (MV4-11 [18]): 2.15%
Activity (MOLM-13 [20]): 4.14%
Activity (MOLM-13 [21]): Active
Activity (MV4-11 [22]): 36%
Activity (MV4-11 [23]): Active
viability at 5 µM (MOLM-13 [24]): 77.2%
Activity (MOLM-13 [25]): 16.5%
Activity (HUVEC [27]): inactive
Activity (HUVEC [28]): inactive
T1/2 (MV4-11 [32]): 1.96 h
Activity (MOLM-13 [33]): 31.5%
